Laboratory results from patent US9040528B2, “Chemical compounds 542” (AstraZeneca AB, priority 2008, dated 2015).

Target: Escherichia coli DNA gyrase A/B tetramer (Escherichia coli (strain K12), UniProt P0AES4+P0AES6)
Test: DNA gyrase supercoiling activity fluorescence polarisation assay
Type: biochemical
Settings: not given
Outline: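 Supercoiling reactions quenched with 40 nM 5′-BODIPY-FL triplex-forming oligonucleotide probe in pH 3.5 NaCl/sodium acetate buffer; after 60 min, fluorescence anisotropy read (ex 485/em 535 nm). IC50 by nonlinear regression, normalised to 0.8% DMSO (100% activity) and 5 μM ciprofloxacin (0% activity).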

For C[C@@H]1CN2c3c(cc4c(OC(=O)OC(C)(C)C)noc4c3F)CC3(C(=O)NC(=O)NC3=O)[C@H]2[C@H](C)O1 (relative stereo) [Example 102, tert-butyl(2R,4S,4aS)-rel-11-fluoro-2,4-dimethyl-2′,4′,6′-trioxo-1,1′,2,3′,4,4′,4a,6′-octahydro-2′H,6H-spiro[isoxazolo[4,5-g][1,4]oxazino[4,3-a]quinoline-5,5′-pyrimidin]-8-yl carbonate], which IC50 is on record?
Its IC50 is 2700 nM.

Same assay, conditions: 5 nM enzyme, relaxed plasmid, 0.3 mM ATP, ambient temperature; read-out: E. coli DNA gyrase supercoiling IC50

How did the IC50 turn out when C[C@@H]1CN2c3c(cc4c(-c5cncc(Cl)n5)noc4c3F)CC3(C(=O)NC(=O)NC3=O)[C@H]2[C@H](C)O1 (relative stereo) [Example 79, (2R,4S,4aS)-rel-8-(6-chloropyrazin-2-yl)-11-fluoro-2,4-dimethyl-2,4,4a,6-tetrahydro-1H,1′H-spiro[isoxazolo[4,5-g][1,4]oxazino[4,3-a]quinoline-5,5′-pyrimidine]-2′,4′,6′(3′H)-trione] was run?
Its IC50 is 800 nM.

With CSc1cnc(-c2noc3c(F)c4c(cc23)CC2(C(=O)NC(=O)NC2=O)[C@H]2[C@H](C)O[C@H](C)CN42)cn1 (relative stereo) [Example 80, (2R,4S,4aS)-rel-11-fluoro-2,4-dimethyl-8-(5-(methylthio)pyrazin-2-yl)-2,4,4a,6-tetrahydro-1H,1′H-spiro[isoxazolo[4,5-g][1,4]oxazino[4,3-a]quinoline-5,5′-pyrimidine]-2′,4′,6′(3′H)-trione] as the molecule, how does the IC50 read?
Its IC50 is 1700 nM.

How did the IC50 turn out when C[C@@H]1CN2c3c(cc4c(Cn5cncn5)noc4c3F)CC3(C(=O)NC(=O)NC3=O)[C@H]2[C@H](C)O1 (relative stereo) [Example 81, (2R,4S,4aS)-rel-8-((1H-1,2,4-triazol-1-yl)methyl)-11-fluoro-2,4-dimethyl-2,4,4a,6-tetrahydro-1H,1′H-spiro[isoxazolo[4,5-g][1,4]oxazino[4,3-a]quinoline-5,5′-pyrimidine]-2′,4′,6′(3′H)-trione] was run?
Its IC50 is 3000 nM.

How did the IC50 turn out when C[C@@H]1CN2c3c(cc4c(-c5ccncc5)noc4c3F)CC3(C(=O)NC(=O)NC3=O)[C@H]2[C@H](C)O1 (relative stereo) [Example 82, (2R,4S,4aS)-rel-11-fluoro-2,4-dimethyl-8-(pyridin-4-yl)-2,4,4a,6-tetrahydro-1H,1′H-spiro[isoxazolo[4,5-g][1,4]oxazino[4,3-a]quinoline-5,5′-pyrimidine]-2′,4′,6′(3′H)-trione] was run?
Its IC50 is 200 nM.

For C[C@@H]1CN2c3c(cc4c(-c5scnc5C(=O)N5CCOCC5)noc4c3F)CC3(C(=O)NC(=O)NC3=O)[C@H]2[C@H](C)O1 (relative stereo) [Example 85, (2R,4S,4aS)-rel-11-fluoro-2,4-dimethyl-8-[4-(morpholin-4-ylcarbonyl)-1,3-thiazol-5-yl]-1,2,4,4a-tetrahydro-2′H,6H-spiro[1,4-oxazino[4,3-a][1,2]oxazolo[4,5-g]quinoline-5,5′-pyrimidine]-2′,4′,6′(1′H,3′H)-trione], which IC50 is on record?
Its IC50 is 17000 nM.

C[C@@H]1CN2c3c(cc4c(-c5ncc(C(=O)N(C)C)s5)noc4c3F)CC3(C(=O)NC(=O)NC3=O)[C@H]2[C@H](C)O1 (relative stereo) [Example 87, 2-[(2R,4S,4aS)-rel-11-fluoro-2,4-dimethyl-2′,4′,6′-trioxo-1,1′,2,3′,4,4′,4a,6′-octahydro-2′H,6H-spiro[1,4-oxazino[4,3-a][1,2]oxazolo[4,5-g]quinoline-5,5′-pyrimidin]-8-yl]-N,N-dimethyl-1,3-thiazole-5-carboxamide] was tested. Which IC50 did it give?
The IC50 was 6700 nM.

C[C@@H]1CN2c3c(cc4c(-c5scnc5C#N)noc4c3F)CC3(C(=O)NC(=O)NC3=O)[C@H]2[C@H](C)O1 (relative stereo) [Example 88, 5-[(2R,4S,4aS)-rel-11-fluoro-2,4-dimethyl-2′,4′,6′-trioxo-1,1′,2,3′,4,4′,4a,6′-octahydro-2′H,6H-spiro[1,4-oxazino[4,3-a][1,2]oxazolo[4,5-g]quinoline-5,5′-pyrimidin]-8-yl]-1,3-thiazole-4-carbonitrile] was tested. Which IC50 did it give?
The IC50 was 1200 nM.

Which IC50 does the source give for C[C@@H]1CN2c3c(cc4c(-c5nccn5C)noc4c3Cl)CC3(C(=O)NC(=O)NC3=O)[C@H]2[C@H](C)O1 (relative stereo) [Example 89, (2R,4S,4aS)-rel-11-chloro-2,4-dimethyl-8-(1-methyl-1H-imidazol-2-yl)-1,2,4,4a-tetrahydro-2′H,6H-spiro[1,4-oxazino[4,3-a][1,2]oxazolo[4,5-g]quinoline-5,5′-pyrimidine]-2′,4′,6′(1′H,3′H)-trione] here?
Its IC50 is 1300 nM.

Cc1ccc(-c2noc3c(F)c4c(cc23)CC2(C(=O)NC(=O)NC2=O)[C@H]2[C@H](C)O[C@H](C)CN42)cn1 (relative stereo) [Example 91, (2R,4S,4aS)-rel-11-fluoro-2,4-dimethyl-8-(6-methylpyridin-3-yl)-2,4,4a,6-tetrahydro-1H,1′H-spiro[isoxazolo[4,5-g][1,4]oxazino[4,3-a]quinoline-5,5′-pyrimidine]-2′,4′,6′(3′H)-trione] was tested. Which IC50 did it give?
The IC50 was 1900 nM.

How did the IC50 turn out when C[C@@H]1CN2c3c(cc4c(C(=O)N5CC(F)(F)C5)noc4c3F)CC3(C(=O)NC(=O)NC3=O)[C@H]2[C@H](C)O1 (relative stereo) [Example 95, (2R,4S,4aS)-rel-8-(3,3-difluoroazetidine-1-carbonyl)-11-fluoro-2,4-dimethyl-2,4,4a,6-tetrahydro-1H,1′H-spiro[isoxazolo[4,5-g][1,4]oxazino[4,3-a]quinoline-5,5′-pyrimidine]-2′,4′,6′(3′H)-trione] was run?
Its IC50 is 300 nM.

With C[C@@H]1CN2c3c(cc4c(-c5ccco5)noc4c3F)CC3(C(=O)NC(=O)NC3=O)[C@H]2[C@H](C)O1 (relative stereo) [Example 97, (2R,4S,4aS)-rel-11-fluoro-8-(furan-2-yl)-2,4-dimethyl-2,4,4a,6-tetrahydro-1H,1′H-spiro[isoxazolo[4,5-g][1,4]oxazino[4,3-a]quinoline-5,5′-pyrimidine]-2′,4′,6′(3′H)-trione] as the molecule, how does the IC50 read?
Its IC50 is 700 nM.

Which IC50 does the source give for C[C@@H]1CN2c3c(cc4c(-c5cncs5)noc4c3F)CC3(C(=O)NC(=O)NC3=O)[C@H]2[C@H](C)O1 (relative stereo) [Example 98, (2R,4S,4aS)-rel-11-fluoro-2,4-dimethyl-8-(thiazol-5-yl)-2,4,4a,6-tetrahydro-1H,1′H-spiro[isoxazolo[4,5-g][1,4]oxazino[4,3-a]quinoline-5,5′-pyrimidine]-2′,4′,6′(3′H)-trione] here?
The IC50 was 400 nM.

How did the IC50 turn out when C[C@@H]1CN2c3c(cc4c(-c5ccccc5F)noc4c3F)CC3(C(=O)NC(=O)NC3=O)[C@H]2[C@H](C)O1 (relative stereo) [Example 99, (2R,4S,4aS)-rel-11-fluoro-8-(2-fluorophenyl)-2,4-dimethyl-2,4,4a,6-tetrahydro-1H,1′H-spiro[isoxazolo[4,5-g][1,4]oxazino[4,3-a]quinoline-5,5′-pyrimidine]-2′,4′,6′(3′H)-trione] was run?
The IC50 was 400 nM.

With C[C@@H]1CN2c3c(cc4c(C5CCOCC5)noc4c3F)CC3(C(=O)NC(=O)NC3=O)[C@H]2[C@H](C)O1 (relative stereo) [Example 100, (2R,4S,4aS)-rel-11-fluoro-2,4-dimethyl-8-(tetrahydro-2H-pyran-4-yl)-2,4,4a,6-tetrahydro-1H,1′H-spiro[isoxazolo[4,5-g][1,4]oxazino[4,3-a]quinoline-5,5′-pyrimidine]-2′,4′,6′(3′H)-trione] as the molecule, how does the IC50 read?
The IC50 was 4100 nM.

With Cc1c2c(cc3c(-c4cnccn4)noc13)CC1(C(=O)NC(=O)NC1=O)[C@H]1[C@H](C)O[C@H](C)CN21 (relative stereo) [Example 101, (2R,4S,4aS)-rel-2,4,11-trimethyl-8-(pyrazin-2-yl)-1,2,4,4a-tetrahydro-2′H,6H-spiro[1,4-oxazino[4,3-a][1,2]oxazolo[4,5-g]quinoline-5,5′-pyrimidine]-2′,4′,6′(1′H,3′H)-trione] as the molecule, how does the IC50 read?
The IC50 was 1400 nM.

With COC[C@@H]1O[C@H](C)CN2c3c(cc4c(C)noc4c3F)CC3(C(=O)NC(=O)NC3=O)[C@@H]12 (relative stereo) [Example 105, (2R,4R,4aS)-rel-11-fluoro-4-(methoxymethyl)-2,8-dimethyl-1,2,4,4a-tetrahydro-2′H,6H-spiro[1,4-oxazino[4,3-a][1,2]oxazolo[4,5-g]quinoline-5,5′-pyrimidine]-2′,4′,6′(1′H,3′H)-trione] as the molecule, how does the IC50 read?
Its IC50 is 700 nM.

With COC[C@@H]1CN2c3c(cc4c(C)noc4c3F)CC3(C(=O)NC(=O)NC3=O)[C@H]2[C@H](C)O1 (relative stereo) [Example 106, (2S,4S,4aS)-rel-11-fluoro-2-(methoxymethyl)-4,8-dimethyl-1,2,4,4a-tetrahydro-2′H,6H-spiro[1,4-oxazino[4,3-a][1,2]oxazolo[4,5-g]quinoline-5,5′-pyrimidine]-2′,4′,6′(1′H,3′H)-trione] as the molecule, how does the IC50 read?
The IC50 was 1100 nM.

For C[C@@H]1CN2c3c(nc4c(-c5ccccn5)noc4c3Cl)CC3(C(=O)NC(=O)NC3=O)[C@H]2[C@H](C)O1 (relative stereo) [Example 107, (2R,4S,4aS)-rel-11-chloro-2,4-dimethyl-8-(pyridyin-2-yl)-2,4,4a,6-tetrahydro-1H,1′H-spiro[isoxazolo[4,5-g][1,4]oxazino[4,3-a][1,5]naphthyridine-5,5′-pyrimidine]-2′,4′,6′(3′H)-trione], which IC50 is on record?
The IC50 was 1400 nM.

Which IC50 does the source give for C[C@@H]1CN2c3c(nc4c(-c5ccncc5)noc4c3Cl)CC3(C(=O)NC(=O)NC3=O)[C@H]2[C@H](C)O1 (relative stereo) [Example 108, (2R,4S,4aS)-rel-11-chloro-2,4-dimethyl-8-(pyridyin-4-yl)-2,4,4a,6-tetrahydro-1H,1′H-spiro[isoxazolo[4,5-g][1,4]oxazino[4,3-a][1,5]naphthyridine-5,5′-pyrimidine]-2′,4′,6′(3′H)-trione] here?
Its IC50 is 800 nM.

How did the IC50 turn out when C[C@@H]1CN2c3c(nc4c(-c5cccnc5)noc4c3Cl)CC3(C(=O)NC(=O)NC3=O)[C@H]2[C@H](C)O1 (relative stereo) [Example 109, (2R,4S,4aS)-rel-11-chloro-2,4-dimethyl-8-(pyridyin-3-yl)-2,4,4a,6-tetrahydro-1H,1′H-spiro[isoxazolo[4,5-g][1,4]oxazino[4,3-a][1,5]naphthyridine-5,5′-pyrimidine]-2′,4′,6′(3′H)-trione] was run?
Its IC50 is 500 nM.
